The record followed here is patent US20230322753A1, “HETEROARYL DERIVATIVE, METHOD FOR PREPARATION THEREOF, AND PHARMACEUTICAL COMPOSITION COMPRISING SAME AS ACTIVE INGREDIENT” (VORONOI INC., priority 2020, published 2023).

Molecules are shown by their SMILES. A value given as a limit tells only on which side of the number the result lay.

This assay has as its system Ba/F3 cells expressing EGFR Exon20 ins NPH. Description: Ba/F3 proliferation suppression activity, cells expressing EGFR Exon20 ins NPH. It counts as cell-based. The note with it: Mus musculus, BaF3, 72 hours, CellTiter-Glo. The protocol:
A following experiment was carried out to evaluate the suppression activity of the compounds according to the present invention against the proliferation of Ba/F3 which expresses EGFR mutations.
For the Ba/F3 cells, a RPMI-1640 medium containing 10% FBS and 5 ng/ml IL-3 (R&D Systems) was used. The transduced Ba/F3 cells were cultured in a medium, which is same as the above medium, but 1 ug/ml puromycin (Invitrogen) was additionally added to.
24 hours before the treatment of the cells with the compounds, 3000 to 5000 cells were distributed into each well of a white clear bottom 96 well plate (Corning). The compounds were diluted in a dimethyl sulfoxide (e.g. dilution ratio of 3:1 and total 12 concentrations) and then injected by 0.5 ul respectively, such that a final concentration amounted to 0.3 nM to 50 uM. 72 hours after the treatment with the compounds, the measurement of live cells was made in such way that these cells were stored for 10 minutes at a room temperature using a CellTiter-Glo luminescent cell-viability reagent (Promega) and then their luminescence intensities were measured using a reader (i.e. Synergy Neo, Biotek). Each test was repeated three times.
resulting values were calculated as a cell growth ratio (%) compared to a control. Then, the graphs were drawn and the […] values were calculated by using a program, GraphPad Prism version 5.0.
On the technique in general: In ATP-based viability assays light output follows the ATP content of the culture.
Turning to `C=CC(=O)Nc1cc(Nc2cc(N3OCC[C@@H]3c3cc(F)cc(C(F)(F)F)c3)ncn2)c(OC)cc1N1CCN(C2CC2)CC1` [Compound 2], the GI50 was 50 to 500 nM.

`C=CC(=O)Nc1cc(Nc2cc(N3OCC[C@@H]3c3cc(F)cc(C(F)(F)F)c3)ncn2)c(OC)cc1N1CCN(C)CC1` [Compound 3]: the GI50 fell in the range of 50 to 500 nM.

With `C=CC(=O)Nc1cc(Nc2cc(N3OCC[C@@H]3c3cc(F)cc(C(F)(F)F)c3)ncn2)c(OC)cc1N1CCN(CC)CC1` [Compound 4], the 50% growth inhibitory concentration (GI50) is < 50 nM.

As to `C=CC(=O)Nc1cc(Nc2cc(N3OCC[C@@H]3c3cc(F)cc(C(F)(F)F)c3)ncn2)c(OC)cc1N1CCN(C2CC2)[C@H](C)C1` [Compound 5], the GI50 fell in the range of 50 to 500 nM.

As to `C=CC(=O)Nc1cc(Nc2cc(N3OCC[C@@H]3c3cc(F)cc(C(F)(F)F)c3)ncn2)c(OC)cc1N1CCN(C2CC2)[C@@H](C)C1` [Compound 6], the 50% growth inhibitory concentration (GI50) lay in the range of 50 to 500 nM.

In the case of `C=CC(=O)Nc1cc(Nc2cc(N3OCC[C@@H]3c3cccc(C(F)(F)F)c3)ncn2)c(OC)cc1N1CCN(C)[C@@H](C)C1` [Compound 7], the concentration for 50% growth inhibition (GI50) was < 50 nM.

For the compound `C=CC(=O)Nc1cc(Nc2cc(N3OCC[C@@H]3c3cccc(C(F)(F)F)c3)ncn2)c(OC)cc1N1CCN(C)[C@H](C)C1` [Compound 8], the 50% growth inhibitory concentration (GI50) is < 50 nM.

In the case of `C=CC(=O)Nc1cc(Nc2cc(N3OCC[C@@H]3c3cccc(C(F)(F)F)c3)ncn2)c(OC)cc1N1CCN(C2CC2)[C@H](C)C1` [Compound 9], the concentration for 50% growth inhibition (GI50) lay within 50 to 500 nM.

For `C=CC(=O)Nc1cc(Nc2cc(N3OCC[C@@H]3c3cccc(C(F)(F)F)c3)ncn2)c(OC)cc1N1CCN(C2CC2)[C@@H](C)C1` [Compound 10], the GI50 was in the range of 50 to 500 nM.

On to `C=CC(=O)Nc1cc(Nc2cc(N3OCC[C@@H]3c3cc(F)cc(C(F)(F)F)c3)ncn2)c(OC)cc1N1CCN(C)[C@H](C)C1` [Compound 11], for which the concentration for 50% growth inhibition (GI50) fell in the range of 50 to 500 nM.

In the case of `C=CC(=O)Nc1cc(Nc2cc(N3OCC[C@@H]3c3cc(F)cc(C(F)(F)F)c3)ncn2)c(OC)cc1N1CCN(C)[C@@H](C)C1` [Compound 12], the GI50 is 50 to 500 nM.

For `C=CC(=O)Nc1cc(Nc2cc(N3OCC[C@@H]3c3cccc(C(F)(F)F)c3)ncn2)c(OC)cc1N1CCC(N2CCC(N3CCN(C4CC4)CC3)CC2)CC1` [Compound 13], the 50% growth inhibitory concentration (GI50) was 50 to 500 nM.

With `C=CC(=O)Nc1cc(Nc2cc(N3OCC[C@@H]3c3cccc(C(F)(F)F)c3)ncn2)c(OC)cc1N1CCC(N2CCC(N3CCN(C)CC3)CC2)CC1` [Compound 14], the GI50 was in the range of 50 to 500 nM.

Consider `C=CC(=O)Nc1cc(Nc2cc(N3OCC[C@@H]3c3cc(F)cc(C(F)(F)F)c3)ncn2)c(OC)cc1N1CCC(N(C)C)CC1` [Compound 15], for which the 50% growth inhibitory concentration (GI50) fell in the range of 50 to 500 nM.

For the compound `C=CC(=O)Nc1cc(Nc2cc(N3OCC[C@@H]3c3cc(F)cc(C(F)(F)F)c3)ncn2)c(OC)cc1N1CCC(N(CC)CC)CC1` [Compound 16], the concentration for 50% growth inhibition (GI50) is < 50 nM.

As to `C=CC(=O)Nc1cc(Nc2cc(N3OCC[C@@H]3c3cc(F)cc(C(F)(F)F)c3)ncn2)c(OC)cc1N(C)CCN(C)C` [Compound 17], the GI50 was < 50 nM.

As for `C=CC(=O)Nc1cc(Nc2cc(N3OCC[C@@H]3c3cc(F)cc(C(F)(F)F)c3)ncn2)c(OC)cc1N1CCC(N2CCCC2)CC1` [Compound 18], the GI50 is < 50 nM.

`C=CC(=O)Nc1cc(Nc2cc(N3OCC[C@@H]3c3cc(F)cc(C(F)(F)F)c3)ncn2)c(OC)cc1N1CCC(N2CCC2)CC1` [Compound 19]: the GI50 was < 50 nM.

With `C=CC(=O)Nc1cc(Nc2cc(N3OCC[C@@H]3c3cccc(C(F)(F)F)c3)ncn2)c(OC)cc1N1CCC(N(CC)CC)CC1` [Compound 20], the GI50 is < 50 nM.

As for `C=CC(=O)Nc1cc(Nc2cc(N3OCC[C@@H]3c3cccc(C(F)(F)F)c3)ncn2)c(OC)cc1N1CCC(N2CCC2)CC1` [Compound 21], the 50% growth inhibitory concentration (GI50) was < 50 nM.

On to `C=CC(=O)Nc1cc(Nc2cc(N3OCC[C@@H]3c3cccc(C(F)(F)F)c3)ncn2)c(OC)cc1N1CCC(N2CCCC2)CC1` [Compound 22], for which the concentration for 50% growth inhibition (GI50) is < 50 nM.

In the case of `C=CC(=O)Nc1cc(Nc2cc(N3OCC[C@@H]3c3cccc(C(F)(F)F)c3)ncn2)c(OC)cc1N1CCN(C2COC2)CC1` [Compound 23], the GI50 was < 50 nM.

For the compound `C=CCN1CCN(c2cc(OC)c(Nc3cc(N4OCC[C@@H]4c4cccc(C(F)(F)F)c4)ncn3)cc2NC(=O)C=C)CC1` [Compound 24], the GI50 was < 50 nM.

`C=CC(=O)Nc1cc(Nc2cc(N3OCC[C@@H]3c3cccc(C(F)(F)F)c3)ncn2)c(OC)cc1N1CCN(CC2CC2)CC1` [Compound 25]: the concentration for 50% growth inhibition (GI50) is < 50 nM.

On to `C=CC(=O)Nc1cc(Nc2cc(N3OCC[C@@H]3c3cccc(C(F)(F)F)c3)ncn2)c(OC)cc1N1CCCN(C)CC1` [Compound 26], for which the 50% growth inhibitory concentration (GI50) was < 50 nM.

For the compound `C=CC(=O)Nc1cc(Nc2cc(N3OCC[C@@H]3c3cccc(C(F)(F)F)c3)ncn2)c(OC)cc1N1CCOCC1` [Compound 27], the 50% growth inhibitory concentration (GI50) was < 50 nM.

Take `C=CC(=O)Nc1cc(Nc2cc(N3OCC[C@@H]3c3cccc(C(F)(F)F)c3)ncn2)c(OC)cc1N1C[C@H]2C[C@@H]1CO2` [Compound 28]: the GI50 is 50 to 500 nM.

In the case of `C=CC(=O)Nc1cc(Nc2cc(N3OCC[C@@H]3c3cccc(C(F)(F)F)c3)ncn2)c(OC)cc1N1CCCN(C2CC2)CC1` [Compound 29], the GI50 was 50 to 500 nM.

In the case of `C=CC(=O)Nc1cc(Nc2cc(N3OCC[C@@H]3c3cccc(C(F)(F)F)c3)ncn2)c(OC)cc1N1C[C@@H]2C[C@H]1CO2` [Compound 30], the GI50 lay in the range of 50 to 500 nM.

In the case of `C=CC(=O)Nc1cc(Nc2cc(N3OCC[C@@H]3c3cccc(C(F)(F)F)c3)ncn2)ccc1N1CCN(C)CC1` [Compound 31], the 50% growth inhibitory concentration (GI50) fell in the range of 50 to 500 nM.

`C=CC(=O)Nc1cc(Nc2cc(N3OCC[C@@H]3c3ccc(Cl)c(C(F)(F)F)c3)ncn2)c(OC)cc1N1CCN(C)CC1` [Compound 32]: the concentration for 50% growth inhibition (GI50) fell in the range of 50 to 500 nM.

With `C=CC(=O)Nc1cc(Nc2cc(N3OCC[C@@H]3c3ccc(Cl)c(C(F)(F)F)c3)ncn2)c(OC)cc1N1CCN(CC)CC1` [Compound 33], the 50% growth inhibitory concentration (GI50) lay in the range of 50 to 500 nM.

On to `C=CC(=O)Nc1cc(Nc2cc(N3OCC[C@@H]3c3ccc(Cl)c(C(F)(F)F)c3)ncn2)c(OC)cc1N1CCC(N2CCN(C3CC3)CC2)CC1` [Compound 34], for which the concentration for 50% growth inhibition (GI50) is 50 to 500 nM.

`C=CC(=O)Nc1cc(Nc2cc(N3OCC[C@@H]3c3ccc(Cl)c(C(F)(F)F)c3)ncn2)c(OC)cc1N1CCC(N(C)C)CC1` [Compound 35]: the GI50 was 50 to 500 nM.

Regarding `C=CC(=O)Nc1cc(Nc2cc(N3OCC[C@@H]3c3ccc(F)c(C(F)(F)F)c3)ncn2)c(OC)cc1N(C)CCN(C)C` [Compound 36], the concentration for 50% growth inhibition (GI50) is < 50 nM.

As for `C=CC(=O)Nc1cc(Nc2cc(N3OCC[C@@H]3c3ccc(F)c(C(F)(F)F)c3)ncn2)c(OC)cc1N1CCN(CC)CC1` [Compound 38], the GI50 was < 50 nM.

Regarding `C=CC(=O)Nc1cc(Nc2cc(N3OCC[C@@H]3c3ccc(F)c(C(F)(F)F)c3)ncn2)c(OC)cc1N1CCC(N(C)C)CC1` [Compound 39], the GI50 was < 50 nM.

Take `C=CC(=O)Nc1cc(Nc2cc(N3OCC[C@@H]3c3ccc(F)c(C(F)(F)F)c3)ncn2)c(OC)cc1N1CCCN(C)CC1` [Compound 40]: the GI50 is < 50 nM.

For the compound `C=CC(=O)Nc1cc(Nc2cc(N3OCC[C@@H]3c3ccc(F)c(C(F)(F)F)c3)ncn2)c(OC)cc1N1CCN(CC2CC2)CC1` [Compound 42], the GI50 is < 50 nM.

For the compound `C=CC(=O)Nc1cc(Nc2cc(N3OCC[C@@H]3c3ccc(F)c(C(F)(F)F)c3)ncn2)c(OC)cc1N1CC[C@@H](N(C)C)C1` [Compound 43], the GI50 was < 50 nM.

Take `C=CC(=O)Nc1cc(Nc2cc(N3OCC[C@@H]3c3ccc(F)c(C(F)(F)F)c3)ncn2)c(OC)cc1N1CCN(C)[C@@H](C)C1` [Compound 44]: the concentration for 50% growth inhibition (GI50) is < 50 nM.

On to `C=CC(=O)Nc1cc(Nc2cc(N3OCC[C@@H]3c3ccc(F)c(C(F)(F)F)c3)ncn2)c(OC)cc1N1C[C@H]2C[C@@H]1CO2` [Compound 45], for which the concentration for 50% growth inhibition (GI50) lay in the range of 50 to 500 nM.

With `C=CC(=O)Nc1cc(Nc2cc(N3OCC[C@@H]3c3ccc(F)c(C(F)(F)F)c3)ncn2)c(OC)cc1N1CCN(C(C)=O)CC1` [Compound 46], the concentration for 50% growth inhibition (GI50) was < 50 nM.

As to `C=CC(=O)Nc1cc(Nc2cc(N3OCC[C@@H]3c3ccc(F)c(C(F)(F)F)c3)ncn2)c(OC)cc1N1CCC(N(CC)CC)CC1` [Compound 47], the GI50 was < 50 nM.

In the case of `C=CC(=O)Nc1cc(Nc2cc(N3OCC[C@@H]3c3ccc(F)c(C(F)(F)F)c3)ncn2)c(OC)cc1N1CCC(N2CCC2)CC1` [Compound 48], the 50% growth inhibitory concentration (GI50) is < 50 nM.

For the compound `C=CC(=O)Nc1cc(Nc2cc(N3OCC[C@@H]3c3ccc(F)c(C(F)(F)F)c3)ncn2)c(OC)cc1N1CCC(N2CCN(C3CC3)CC2)CC1` [Compound 49], the GI50 was < 50 nM.

With `C=CC(=O)Nc1cc(Nc2cc(N3OCCC3c3cc(Cl)cc(C(F)(F)F)c3)ncn2)c(OC)cc1N1CCN(CC)CC1` (stereo not drawn) [Compound 50], the 50% growth inhibitory concentration (GI50) lay within 50 to 500 nM.

Take `C=CC(=O)Nc1cc(Nc2cc(N3OCCC3c3cc(Cl)cc(C(F)(F)F)c3)ncn2)c(OC)cc1N1CCC(N2CCN(C3CC3)CC2)CC1` (stereo not drawn) [Compound 51]: the concentration for 50% growth inhibition (GI50) was 50 to 500 nM.

On to `C=CC(=O)Nc1cc(Nc2cc(N3OCC[C@@H]3c3ccc(F)c(C(F)(F)F)c3)ncn2)c(OC)cc1N1C[C@@H]2C[C@H]1CO2` [Compound 54], for which the 50% growth inhibitory concentration (GI50) was in the range of 50 to 500 nM.

Consider `C=CC(=O)Nc1cc(Nc2cc(N3OCC[C@@H]3c3ccc(F)c(C(F)(F)F)c3)ncn2)c(OC)cc1N1CCO[C@@H](C)C1` [Compound 56], for which the GI50 was 50 to 500 nM.

Consider `C=CC(=O)Nc1cc(Nc2cc(N3OCC[C@@H]3c3ccc(F)c(C(F)(F)F)c3)ncn2)c(OC)cc1N1CCO[C@H](C)C1` [Compound 57], for which the GI50 is 50 to 500 nM.

For orientation: GI50 means the concentration at which growth is held to half of that of the control.
